The text below walks through data of patent US10544150B2, “NK-3 receptor selective antagonist compounds, pharmaceutical composition and methods for use in NK-3 receptors mediated disorders” (Ogeda SA, priority 2010, dated 2020).

pKi: −log10 of the molar value.

human NK-3 receptor, sequence (P29371 whole entry): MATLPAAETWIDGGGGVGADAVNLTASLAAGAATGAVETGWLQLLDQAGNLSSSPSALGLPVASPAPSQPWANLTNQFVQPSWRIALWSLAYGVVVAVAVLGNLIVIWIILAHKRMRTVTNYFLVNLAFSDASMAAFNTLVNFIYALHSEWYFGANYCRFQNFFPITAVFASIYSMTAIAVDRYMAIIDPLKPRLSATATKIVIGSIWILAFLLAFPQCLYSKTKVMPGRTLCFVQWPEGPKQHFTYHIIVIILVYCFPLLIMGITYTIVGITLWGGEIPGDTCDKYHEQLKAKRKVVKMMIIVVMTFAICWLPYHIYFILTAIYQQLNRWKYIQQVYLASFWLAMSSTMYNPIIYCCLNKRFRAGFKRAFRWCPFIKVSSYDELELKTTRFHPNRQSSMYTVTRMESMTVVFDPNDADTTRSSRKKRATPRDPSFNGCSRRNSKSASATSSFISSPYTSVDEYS

The test addresses human NK-3 receptor (Homo sapiens (Human), UniProt P29371). As to the kind of experiment: 3H-SB222200 binding competition assay with human NK-3 receptor. Particulars: 3H-SB222200 displacement, CHO cell membranes expressing human NK3 receptor; read-out: Ki range. Here is the method:
The affinity of compounds of the invention for the tachykinin receptors was determined by measuring the ability of the compounds of the invention to displace a radiolabeled ligand from its specifics binding site.
^3H-SB222200 Binding Competition Assay with Human NK-3 Receptor
The ability of the compounds of the invention to inhibit the binding of the NK-3 receptor selective antagonist SB222200 was assessed by an in vitro radioligand binding assay. Membranes were prepared from Chinese hamster ovary recombinant cells which express the human NK3 receptor. The membranes were incubated with 5 nM ^3H-SB222200_(ARC) in a HEPES 25 mM/NaCl 0.1M/CaCl2 1 mM/MgCl2 5 Mm/BSA 0.5%/Saponin 10 μg/ml buffer at pH 7.4 and various concentrations of the compounds of the invention. The amount of tritiated SB222200 bound to the receptor was determined after filtration by the quantification of membrane associated radioactivity using the TopCount-NXT reader (Packard). […] In Table 3 biological results obtained using the ^3H-SB222200 binding competition assay with compounds of the invention are set out in tabulated form. In this table the calculated Ki is given. The Ki value obtained (in accordance with the protocol set forth above) is represented as follows: “+++” means Ki<500 nM; “++” means 500 nM≤Ki≤1 μM; “+” means 1 μM<Ki≤5 μM; “#” means Ki>5 μM.
A word on the pKi: it is the negative decadic logarithm of the Ki, by convention in mol/L. Consider `O=C(c1ccc(F)cc1)N1CCn2c(nnc2-c2ccccn2)C1` [Compound 1, (4-fluorophenyl)(3-(pyridin-2-yl)-5,6-dihydro-[1,2,4]triazolo[4,3-a]pyrazin-7(8H)-yl)methanone], for which the pKi was 5.30 to 6.00. For `O=C(c1ccc(Cl)cc1)N1CCn2c(nnc2-c2ccccn2)C1` [Compound 2, (4-chlorophenyl)(3-(pyridin-2-yl)-5,6-dihydro-[1,2,4]triazolo[4,3-a]pyrazin-7(8H)-yl)methanone] the value was 5.30 to 6.00. Take `O=C(c1cc(-c2ccc(Cl)cc2)n[nH]1)N1CCn2c(nnc2-c2ccccn2)C1` [Compound 3, (3-(4-chlorophenyl)-1H-pyrazol-5-yl)(3-(pyridin-2-yl)-5,6-dihydro-[1,2,4]triazolo[4,3-a]pyrazin-7(8H)-yl)methanone]: the pKi was 5.30 to 6.00.

Consider `O=C(c1cc(-c2ccc(Cl)c(Cl)c2)n[nH]1)N1CCn2c(nnc2-c2ccccn2)C1` [Compound 4, (3-(3,4-dichlorophenyl)-1H-pyrazol-5-yl)(3-(pyridin-2-yl)-5,6-dihydro-[1,2,4]triazolo[4,3-a]pyrazin-7(8H)-yl)methanone], for which the pKi was 5.30 to 6.00.

On to `O=C(c1ccc(Cl)c(Cl)c1)N1CCn2c(nnc2-c2ccccn2)C1` [Compound 5, (3,4-dichlorophenyl)(3-(pyridin-2-yl)-5,6-dihydro-[1,2,4]triazolo[4,3-a]pyrazin-7(8H)-yl)methanone], for which the pKi was 5.30 to 6.00.

Consider `O=C(c1ccc(-c2ccccc2)cc1)N1CCn2c(nnc2-c2ccccn2)C1` [Compound 6, [1,1′-biphenyl]-4-yl(3-(pyridin-2-yl)-5,6-dihydro-[1,2,4]triazolo[4,3-a]pyrazin-7(8H)-yl)methanone], for which the negative-log Ki (pKi) is 5.30 to 6.00. For `O=C(c1ccc(F)cc1)N1CCn2c(nnc2-c2ccc3ccccc3n2)C1` [Compound 7, (4-fluorophenyl)(3-(quinolin-2-yl)-5,6-dihydro-[1,2,4]triazolo[4,3-a]pyrazin-7(8H)-yl)methanone] the value was greater than 6.30. As for `O=C(c1ccc(F)cc1)N1CCn2c(nnc2-c2csc(-c3ccccc3)n2)C1` [Compound 8, (4-fluorophenyl)(3-(2-phenylthiazol-4-yl)-5,6-dihydro-[1,2,4]triazolo[4,3-a]pyrazin-7(8H)-yl)methanone], the negative-log Ki (pKi) was greater than 6.30.

Regarding `O=C(c1ccc(F)cc1)N1CCn2c(nnc2-c2csc(N3CCOCC3)n2)C1` [Compound 9, (4-fluorophenyl)(3-(2-morpholinothiazol-4-yl)-5,6-dihydro-[1,2,4]triazolo[4,3-a]pyrazin-7(8H)-yl)methanone], the negative logarithm of the Ki (pKi) was greater than 6.30. For `Cc1cccc(-c2nnc3n2CCN(C(=O)c2ccc(F)cc2)C3)n1` [Compound 11, (4-fluorophenyl)(3-(6-methylpyridin-2-yl)-5,6-dihydro-[1,2,4]triazolo[4,3-a]pyrazin-7(8H)-yl)methanone] the value was greater than 6.30; for `O=C(c1cc(-c2ccc(Cl)cc2Cl)n[nH]1)N1CCn2c(nnc2-c2ccccn2)C1` [Compound 13, (3-(2,4-dichlorophenyl)-1H-pyrazol-5-yl)(3-(pyridin-2-yl)-5,6-dihydro-[1,2,4]triazolo[4,3-a]pyrazin-7(8H)-yl)methanone], 5.30 to 6.00; for `Cn1nc(-c2ccc(Cl)c(Cl)c2)cc1C(=O)N1CCn2c(nnc2-c2ccccn2)C1` [Compound 14, (3-(3,4-dichlorophenyl)-1-methyl-1H-pyrazol-5-yl)(3-(pyridin-2-yl)-5,6-dihydro-[1,2,4]triazolo[4,3-a]pyrazin-7(8H)-yl)methanone], 5.30 to 6.00. For `O=C(c1ccc(F)cc1)N1CCn2c(nnc2-c2cc3ccccc3cn2)C1` [Compound 15, (4-fluorophenyl)(3-(isoquinolin-3-yl)-5,6-dihydro-[1,2,4]triazolo[4,3-a]pyrazin-7(8H)-yl)methanone] the value was 5.30 to 6.00; for `O=C(c1ccc(-c2ccc(F)cc2)cc1)N1CCn2c(nnc2-c2ccccn2)C1` [Compound 16, (4′-fluoro-[1,1′-biphenyl]-4-yl)(3-(pyridin-2-yl)-5,6-dihydro-[1,2,4]triazolo[4,3-a]pyrazin-7(8H)-yl)methanone], 5.30 to 6.00; for `O=C(c1cc(-c2ccc(C(F)(F)F)cc2)n[nH]1)N1CCn2c(nnc2-c2ccccn2)C1` [Compound 17, (3-(pyridin-2-yl)-5,6-dihydro-[1,2,4]triazolo[4,3-a]pyrazin-7(8H)-yl)(3-(4-(trifluoromethyl)phenyl)-1H-pyrazol-5-yl)methanone], 5.30 to 6.00. For `O=C(c1cc(-c2ccc(Oc3ccccc3)cc2)n[nH]1)N1CCn2c(nnc2-c2ccccn2)C1` [Compound 18, (3-(4-phenoxyphenyl)-1H-pyrazol-5-yl)(3-(pyridin-2-yl)-5,6-dihydro-[1,2,4]triazolo[4,3-a]pyrazin-7(8H)-yl)methanone] the value was 5.30 to 6.00.

As for `O=C(c1ccc(-c2ccccc2)cc1)N1CCn2c(nnc2-c2ccc3ccccc3n2)C1` [Compound 19, [1,1′-biphenyl]-4-yl(3-(quinolin-2-yl)-5,6-dihydro-[1,2,4]triazolo[4,3-a]pyrazin-7(8H)-yl)methanone], the negative logarithm of the Ki (pKi) is greater than 6.30. As to `O=C(c1ccc(-c2ccccc2)cc1)N1CCn2c(nnc2-c2csc(N3CCOCC3)n2)C1` [Compound 20, [1,1′-biphenyl]-4-yl(3-(2-morpholinothiazol-4-yl)-5,6-dihydro-[1,2,4]triazolo[4,3-a]pyrazin-7(8H)-yl)methanone], the pKi was greater than 6.30. For `O=C(c1ccc(-c2cccs2)cc1)N1CCn2c(nnc2-c2ccccn2)C1` [Compound 21, (3-(pyridin-2-yl)-5,6-dihydro-[1,2,4]triazolo[4,3-a]pyrazin-7(8H)-yl)(4-(thiophen-2-yl)phenyl)methanone] the value was greater than 6.30; for `O=C(c1ccc(F)cc1)N1CCn2c(nnc2-c2ccc3cccc(F)c3n2)C1` [Compound 22, (4-fluorophenyl)(3-(8-fluoroquinolin-2-yl)-5,6-dihydro-[1,2,4]triazolo[4,3-a]pyrazin-7(8H)-yl)methanone], 6.00 to 6.30; for `O=C(c1ccc(F)cc1)N1CCn2c(nnc2-c2ccc3cccc(Cl)c3n2)C1` [Compound 23, (3-(8-chloroquinolin-2-yl)-5,6-dihydro-[1,2,4]triazolo[4,3-a]pyrazin-7(8H)-yl)(4-fluorophenyl)methanone], 6.00 to 6.30.

For the compound `O=C(c1ccc(F)cc1)N1CCn2c(nnc2-c2csc(-c3ccc(C(F)(F)F)cc3)n2)C1` [Compound 24, (4-fluorophenyl)(3-(2-(4-(trifluoromethyl)phenyl)thiazol-4-yl)-5,6-dihydro-[1,2,4]triazolo[4,3-a]pyrazin-7(8H)-yl)methanone], the pKi is greater than 6.30. For `O=C(c1ccc(F)cc1)N1CCn2c(nnc2-c2cccc(-c3ccccc3)n2)C1` [Compound 25, (4-fluorophenyl)(3-(6-phenylpyridin-2-yl)-5,6-dihydro-[1,2,4]triazolo[4,3-a]pyrazin-7(8H)-yl)methanone] the value was greater than 6.30; for `O=C(c1ccc(-c2ccccc2)cc1)N1CCn2c(nnc2-c2csc(-c3ccccc3)n2)C1` [Compound 26, [1,1′-biphenyl]-4-yl(3-(2-phenylthiazol-4-yl)-5,6-dihydro-[1,2,4]triazolo[4,3-a]pyrazin-7(8H)-yl)methanone], greater than 6.30.
